Numbers after ± are expanded uncertainties.
Tests used:
[1] = 298.15 K; 101.33 kPa; Liquid; Vibrating tube method
[2] = refractive index (Na D-line) (dimensionless); conditions: 298.15 K; 101.33 kPa; Liquid; Standard Abbe refractometry

CCOS(=O)(=O)[O-].CCn1cc[n+](C)c1 [1-ethyl-3-methylimidazolium ethyl sulfate]
mass density [1]: 1237.23 ± 0.43 kg/m3 | refractive index [2]: 1.4791 ± 0.0007

Source: the NIST ThermoML archive (doi:10.1016/j.fluid.2011.01.021)
